Experimental data reported in patent EP1344776A1, “5- 2-hydroxy-3-[1-(3-trifluoromethylphenyl)-cyclopropyl]-propionylamino -phtalide and 6- 2-hydroxy-3-[1-(3-trifluoromethylphenyl)-cyclopropyl]-propionylamino -4-methyl-2,3-benzoxazin-1-one derivatives with progesterone receptor modulating activity for use in fertility control, hormone replacement …” (Schering Aktiengesellschaft, priority 2002, dated 2003).
Like-named read-outs stand apart in the source and are kept apart here.

Assays:
juvenile female rabbits = experiment: Endometrial transformation in rabbit (Clauberg test); format: in vivo; settings: for McPhail Index: scores 1 to 4; for minimal effective dose: Oryctolagus cuniculus, read-out: Threshold Value
hPR-A = experiment: PR-A transcription assay (MTV-LUC reporter, SK-N-MC cells); format: cell-based, human; settings: 10^-7 mol/l test compound relative to R5020 10^-7 mol/l, 24 hours, 0.1 µM
Protocol: The method for screening for PR isoform-specific progestins according to the present invention is carried out with first and second SK-N-MC cells stably transfected with a plasmid expressing the hPR-A (first cells) or the hPR-B (second cells) and the LUC reporter gene linked to the hormonally responsive MTV promoter.
For the transcription assay, the cells are seeded onto 96-well dishes (2x 10^4 cells/dish) and cultured in a medium as described above, with the exception that the FCS is replaced by a 3 % charcoal stripped FCS. 48 hours later, cells are contacted with prediluted test compounds. For determination of agonistic activity, cells are cultured in the presence of increasing concentrations (10^-6 to 10^-11 mol/l) of test progestins. As a positive control for reporter gene induction cells are treated with 10^-6 to 10^-11 mol/l R5020 (promegestone). As a negative control for reporter gene induction, cells are cultured in 1 % ethanol.
Evaluation of the response gives the efficacy [%], and evaluation of the EC50 values gives the potency [nM]. Calculation of the agonistic activity is conducted as follows:
The LUC activity [%] for the measured data points is calculated as follows: relative LUC activity [%] = 100 x((response 10)^-6 (to 10)^-11 mol/l test compound - CO)/(CI - CO) [formula] wherein CI = 100 % stimulation (R5020, 10^-7 mol/l) and CO = 0 % stimulation (ethanol, 1 %).
Thus, the efficacy [%] is calculated according to: efficacy [%] = 100 x((response 10)^-7 mol/l test compound - CO)/(CI - CO) [formula]
The potency [nM], i.e. the EC50, is determined graphically.

[1] = target: T1, estrogen receptor-α (ERα) (Homo sapiens, UniProt P03372); experiment: Estrogen receptor-α binding; settings: in vitro
T1 sequence (P03372 1-595): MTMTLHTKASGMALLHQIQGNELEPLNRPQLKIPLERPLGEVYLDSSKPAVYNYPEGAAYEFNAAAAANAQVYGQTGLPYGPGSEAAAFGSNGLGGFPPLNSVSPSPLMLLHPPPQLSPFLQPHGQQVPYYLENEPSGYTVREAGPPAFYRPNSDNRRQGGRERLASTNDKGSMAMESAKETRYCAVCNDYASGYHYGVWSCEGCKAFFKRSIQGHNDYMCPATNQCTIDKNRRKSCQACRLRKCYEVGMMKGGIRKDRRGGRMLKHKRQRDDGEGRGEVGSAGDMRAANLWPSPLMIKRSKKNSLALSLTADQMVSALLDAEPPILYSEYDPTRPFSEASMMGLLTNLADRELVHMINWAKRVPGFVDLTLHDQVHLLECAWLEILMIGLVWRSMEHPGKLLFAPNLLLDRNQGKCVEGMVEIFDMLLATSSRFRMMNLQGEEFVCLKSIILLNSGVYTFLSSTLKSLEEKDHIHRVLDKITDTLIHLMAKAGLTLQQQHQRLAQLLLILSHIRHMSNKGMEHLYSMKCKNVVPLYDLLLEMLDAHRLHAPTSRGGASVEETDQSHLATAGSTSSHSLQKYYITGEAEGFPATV

androgen receptor (AR) = target: T2, androgen receptor (AR) (Homo sapiens, UniProt P10275); experiment: Androgen receptor binding
T2 sequence (P10275 1-920): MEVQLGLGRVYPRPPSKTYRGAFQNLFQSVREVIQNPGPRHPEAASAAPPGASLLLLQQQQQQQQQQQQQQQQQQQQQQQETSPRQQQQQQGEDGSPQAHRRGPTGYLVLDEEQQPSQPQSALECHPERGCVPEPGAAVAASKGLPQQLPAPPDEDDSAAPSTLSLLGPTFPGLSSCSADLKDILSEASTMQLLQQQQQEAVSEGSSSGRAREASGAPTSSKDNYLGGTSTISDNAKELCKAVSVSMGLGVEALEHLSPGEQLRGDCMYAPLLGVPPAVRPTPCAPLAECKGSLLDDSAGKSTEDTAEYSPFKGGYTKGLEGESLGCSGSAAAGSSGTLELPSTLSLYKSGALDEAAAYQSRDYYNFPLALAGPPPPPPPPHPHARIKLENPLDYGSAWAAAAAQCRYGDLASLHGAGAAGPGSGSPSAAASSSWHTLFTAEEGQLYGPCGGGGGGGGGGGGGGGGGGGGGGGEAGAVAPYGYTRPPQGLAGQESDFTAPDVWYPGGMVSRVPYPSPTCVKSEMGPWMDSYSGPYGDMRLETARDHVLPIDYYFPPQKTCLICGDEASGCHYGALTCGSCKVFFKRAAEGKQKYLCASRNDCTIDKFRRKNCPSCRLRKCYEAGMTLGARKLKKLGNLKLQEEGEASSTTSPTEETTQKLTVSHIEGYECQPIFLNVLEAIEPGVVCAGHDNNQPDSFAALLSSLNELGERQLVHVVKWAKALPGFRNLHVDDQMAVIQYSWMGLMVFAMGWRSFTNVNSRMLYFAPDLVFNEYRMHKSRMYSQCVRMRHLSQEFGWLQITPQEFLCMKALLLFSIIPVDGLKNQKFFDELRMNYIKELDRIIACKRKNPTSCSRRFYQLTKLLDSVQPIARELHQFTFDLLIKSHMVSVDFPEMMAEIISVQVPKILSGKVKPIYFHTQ

[2] = Glucocorticoid / anti-glucocorticoid activity in vivo (changes in thymus weight); settings: concluded from changes in thymus weight

## O=C1OCc2cc(NC(=O)C(O)(CC3(c4cc(C(F)(F)F)ccc4F)CC3)C(F)(F)F)ccc21 (single isomer, unassigned; (+)) [((+)-1), (+)-5-{2-hydroxy-3-[1-(2-fluoro-5-trifluoromethylphenyl)-cyclopropyl]-2-trifluoromethyl-propionylamino}-phthalide]
Juvenile female rabbits; Oral (p.o.), 0.001 mg/kg
  McPhail Index: 1.2
Juvenile female rabbits; Oral (p.o.), 0.01 mg/kg
  McPhail Index: 2.5
Juvenile female rabbits; Oral (p.o.), 0.1 mg/kg
  McPhail Index: 3.0
Juvenile female rabbits; sc, Subcutaneous (s.c.)
  minimal effective dose: 1 to 10 µg/kg
Juvenile female rabbits; Oral (p.o.)
  minimal effective dose: 1 to 10 µg/kg
Juvenile female rabbits; Subcutaneous (s.c.), 0.001 mg/kg
  McPhail Index: 1.0
Juvenile female rabbits; Subcutaneous (s.c.), 0.01 mg/kg
  McPhail Index: 2.7
Juvenile female rabbits; Subcutaneous (s.c.), 0.1 mg/kg
  McPhail Index: 3.8
hPR-A
  PR-A agonism efficacy: 88.7%
[1]
  affinity for the estrogen receptor-α (ERα): negligible
Androgen receptor (AR)
  binding affinity for the androgen receptor (AR): moderate
[2]
  glucocorticoid or anti-glucocorticoid activity in vivo: does not seem to exhibit any glucocorticoid or any anti-glucocorticoid activity
